Measured values as given in US20230312587A1, “PTERIDINONE COMPOUNDS AND USES THEREOF” (Vertex Pharmaceutical Incorporated, priority 2018, published 2023).

What was measured:
Type in all cases: cell-based
HepG2 XBP1(u)-Luc cells = assay: HepG2 XBP1 reporter assay; conditions: Homo sapiens, 6 h
How it was run: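 Reporter cells are HepG2 stably carrying unspliced XBP1 fused to firefly luciferase, which becomes in-frame after IRE1alpha-mediated splicing. SteadyGlo luminescence was normalized to DMSO-treated cells for IC50 calculation.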

HepG2 parental = assay: In vitro cell viability (CellTiter-Glo), HepG2 parental; conditions: Homo sapiens, 96 hours, read-out: HepG2 viability
Description: (§1) HEK293 cells containing empty pCLPCx vector (HEK293 empty), HEK293 cells stably over-expression WFS1 (HEK293 WFS1), HepG2, and HepG2 cells where WFS1 was depleted via CRISPR/Cas9 (HepG2 WFS1 KO) cells were plated into 96-well black plates (Corning, product #3904) in 100 microliters of complete DMEM cell culture media [DMEM (Life Technologies, product #11960-051) media supplemented with 10% FBS (Hyclone, catalog #SH30071.03), antimycotic/antibiotic (Life Technologies, product #15240-062), and Glutamax (Life Technologies, product #35050-061)] at 1,000 (HEK293) or 5,000 (HepG2) cells per well. Cells were allowed to attach and grow overnight, after which compounds are added at various concentrations. Cell viability was assessed 96 hrs after compound addition with CellTiter-Glo reagent (Promega, catalog #G7570) according to manufacturer's protocol and measurement on a Pherastar luminescence plate reader (BMG Labtech).
To determine the effect of WFS1 depletion on compound mediated inhibition of cell viability, parental HepG2 cells and HepG2 cells where WFS1 was deleted by CRISPR/Cas9 were exposed to increasing concentrations of either Compound 136 or Compound 253 for 96 hours after which time viability was determined using Cell Titer Glo reagent (Promega). […] The IC50s for the viability of both the HepG2 parental and WFS1 knockout cells are summarized in Table 47: A<0.5 μM; 0.5 μM≤<2.0 μM; 2.0 μM≤C<10.0 μM; D≥[…].

Hek293 empty vector = assay: In vitro cell viability (CellTiter-Glo), Hek293 empty vector; conditions: Homo sapiens, HEK293; read-out: Hek293 empty vector viability
Description: (§2) HEK293 (ATCC, catalog #CRL-1573) cells are plated in 10 cm dishes (Corning, product #430167) into 10 mL of complete DMEM cell culture media [DMEM (Life Technologies, product #11960-051) media supplemented with 10% FBS (Hyclone, catalog #SH30071.03), antimycotic/antibiotic (Life Technologies, product #15240-062), and Glutamax (Life Technologies, product #35050-061)] at 3×10^6 cells per dish. Cells are allowed to attach and grow overnight at 37° C. in humidified 5% CO2. Cells are co-transfected with pVSV-G, pCMV-Gag/Pol and pCLPCX_WFS1 using Fugene 6 (Promega, catalog #E2691) according to manufacturer's protocol. Separately, cells are co-transfected with pVSV-G, pCMV-Gag/Pol and pCLPCX to produce control retrovirus. Cell culture media containing retrovirus (viral supernatant) is collected at 48 and 72 hours following transfection, filtered through a 0.4 uM filter, and stored at −80° C.
(§3) HEK293 cells are plated in 6 well plates (Corning, product #3516) in 2 mL of complete DMEM cell culture media at 1×10^5 cells well and allowed to attach and grow overnight at 37° C. in humidified 5% CO2. The following day, the media is replaced with viral supernatant to which 10 ug/ml of Polybrene® (Santa Cruz Biotech, catalog #sc-134220) is added. Viral supernatant is replaced 24 hours later with complete DMEM media. Transduced cells are selected in complete DMEM cell culture media containing 1 microgram/mL of puromycin (Life Technologies, catalog #A1113803).
as §1
(§4) The IC50s for the viability of both the Hek293 empty vector and WFS1 over-expressing cells are summarized in Table 47: A<0.06 μM; 0.06 μM≤B<0.6 μM; 0.6 μM≤C<3.0 μM; D≥3.0 μM.

[1] = test system: Hek293 WFS1 over-expressor; assay: In vitro cell viability (CellTiter-Glo), Hek293 WFS1 over-expressor; conditions: Homo sapiens, HEK293, Hek293 WFS1 over-expressing cells; read-out: Hek293 WFS1 viability
Description: WFS1 cDNA is amplified from clone RC202901 (Origene Technologies) with primers 5′-TCCGCGGCCCCAAGCTTATCGCCATGGACTCCAACACTGC-3′ (SEQ ID NO: 1), 5′-GATGGGCCCAGATCTCGAGTCAGGCCGCCGACAGGAATG-3′ (SEQ ID NO: 2) and cloned into a retroviral mammalian expression vector pCLPCX using HD Infusion (CLONTECH) at Hind3-Xhol sites using standard procedures. The resulting clone is identified as pCLPCX_WFS1.
as §2, §3, §1, §4

Colo-205 cells = assay: Calcium flux assay (FLIPR Calcium 5); conditions: Homo sapiens, COLO 205, 0.6 h, FLIPR Calcium 5, measured over 36 minutes
Description: Compounds described herein induced ER stress by causing intracellular calcium flux. Calcium flux was measured in Colo-205 cells using the FLTPR® Calcium 5 Assay Kit according to manufacter's protocol (Molecular Devices, Cat. #R8186) on a FLIPR3 system (Molecular Devices). Calcium flux is measured over 36 minutes. The Colo-205 calcium flux assay data are summarized in Table 47: A<0.6 μM; 0.6 μM≤B<2.0 μM; 2.0 μM≤C<10.0 μM; D≥10.0 μM.

Structure (SMILES) | IC50 (HepG2 XBP1(u)-Luc cells) | EC50 (Colo-205 cells) | IC50 (HepG2 parental) | IC50 (Hek293 empty vector) | IC50 [1]
Cc1nc(NCc2cnn(CCc3ccc(F)cc3)c2)nc2c1NC(=O)[C@H](C)N2C [Compound 6, (7S)-2-(((1-(4-fluorophenethyl)-1H-pyrazol-4-yl)methyl)amino)-4,7,8-trimethyl-7,8-dihydropteridin-6(5H)-one] | 600 to 2000 nM | 600 to 2000 nM | 2000 to 10000 nM | ≥ 3000 nM | 60 to 600 nM
Cc1nc(NCc2cnn(CC3CCC3)c2)nc2c1N(C)C(=O)[C@H](C)N2C [Compound 7, (7S)-2-(((1-(cyclobutylmethyl)-1H-pyrazol-4-yl)methyl)amino)-4,5,7,8-tetramethyl-7,8-dihydropteridin-6(5H)-one] | 600 to 2000 nM | 600 to 2000 nM | 2000 to 10000 nM | ≥ 3000 nM | 60 to 600 nM
Cc1nc(NCc2cnn(CCc3ccc(F)cc3)c2)nc2c1N(C)C(=O)[C@H](C)N2C [Compound 8, (7S)-2-(((1-(4-fluorophenethyl)-1H-pyrazol-4-yl)methyl)amino)-4,5,7,8-tetramethyl-7,8-dihydropteridin-6(5H)-one] | 2000 to 10000 nM | 2000 to 10000 nM | 2000 to 10000 nM | ≥ 3000 nM | ≥ 3000 nM
CC[C@H]1C(=O)Nc2cnc(NCc3cnn(Cc4ccc(F)cc4)c3)nc2N1C [Compound 9, (7S)-7-ethyl-2-(((1-(4-fluorobenzyl)-1H-pyrazol-4-yl)methyl)amino)-8-methyl-7,8-dihydropteridin-6(5H)-one] | 600 to 2000 nM | 600 to 2000 nM | ≥ 10000 nM | ≥ 3000 nM | 60 to 600 nM
Cc1nc(NCc2cnn(C[C@H](C)c3ccc(F)cc3)c2)nc2c1NC(=O)[C@H](C)N2C [Compound 96, (7S)-2-(((1-((R)-2-(4-fluorophenyl)propyl)-1H-pyrazol-4-yl)methyl)amino)-4,7,8-trimethyl-7,8-dihydropteridin-6(5H)-one] | < 600 nM | < 600 nM | 2000 to 10000 nM | ≥ 3000 nM | 60 to 600 nM

Further lines, with some results ahead:

IC50 (HepG2 XBP1(u)-Luc cells) | EC50 (Colo-205 cells) | Structure (SMILES) | IC50 (HepG2 parental) | IC50 (Hek293 empty vector) | IC50 [1]
< 600 nM | 2000 to 10000 nM | Cc1nc(N[C@H]2CC[C@H](n3ccc(C(F)(F)F)n3)C2)nc2c1NC(=O)[C@H](C)N2C (single isomer, unassigned) [Compound 310] | ≥ 10000 nM | ≥ 3000 nM | 60 to 600 nM
< 600 nM | < 600 nM | Cc1nc(N[C@@H]2CC[C@@H](n3ccc(C(F)(F)F)n3)C2)nc2c1NC(=O)[C@H](C)N2C (single isomer, unassigned) [Compound 311] | ≥ 10000 nM | ≥ 3000 nM | < 60 nM
2000 to 10000 nM | 2000 to 10000 nM | Cc1nc(NCc2cnn(Cc3ccc(C(F)(F)F)nc3[C@@H](C)O)c2)nc2c1NC(=O)[C@H](C)N2C (single isomer, unassigned) [Compound 420] | 500 to 2000 nM | ≥ 3000 nM | 60 to 600 nM
